Test results from US12496301B2, “Use of androgen receptor degrader for the treatment of spinal and bulbar muscular atrophy” (Arvinas Operations, Inc., priority 2023, dated 2025).
Read-outs that look alike come from different tables or passages of the source.

What was measured:
[1] = test system: AR; test: AR degradation in hiPSC myotubes in the presence of dihydrotestosterone (DHT); format: cell-based, human
Description: FIG. 11 is a representative dose response curve showing mean AR concentration in DMSO treated cells plotted against Compound A concentration in SBMA patient-derived hiPSC lines differentiated into myotubes.
Control and SBMA hiPSCs were differentiated into myotubes as previously described (Caron, L. et al. 2016, STEM CELLS Transl. Med. 5, 1145-1161) using the skeletal muscle differentiation kit (Amsbio). hiPSCs were dissociated to single cells using Accutase and plated on Geltrex-coated 10 cm culture plates at a density of 200,000 cells per plate with SBMA hiPSCs in skeletal muscle induction media (SKM01, AMSBIO). Media changes were performed every second day until cells were confluent (˜7 days). The resulting myogenic precursor cells were then dissociated to single cells using Accutase and replated on Matrigel-coated 24-well tissue culture plate with 500 μL of cells at 35,000 cells per mL in skeletal myoblast media (SKM02, AMSBIO). Half media changes were performed every second day until myoblasts reached confluence (˜7 days). The media was then switched to myotube medium (SKM03, ASMBIO). Media changes every second day until myotube formation was confirmed by microscopy. […] AR protein was measured by capillary electrophoresis. […]

[2] = molecular target: T1, endogenous AR (Mus musculus, UniProt P19091); test: In vivo AR degradation in LABC muscle of C57Bl/6 mice (mouse AR ELISA), PK/PD
T1 construct: from tissue; host or cells: mouse LABC muscle (C57Bl/6 and hAR100Q mice); quadriceps (hAR100Q mice)
T1 sequence (P19091 1-899): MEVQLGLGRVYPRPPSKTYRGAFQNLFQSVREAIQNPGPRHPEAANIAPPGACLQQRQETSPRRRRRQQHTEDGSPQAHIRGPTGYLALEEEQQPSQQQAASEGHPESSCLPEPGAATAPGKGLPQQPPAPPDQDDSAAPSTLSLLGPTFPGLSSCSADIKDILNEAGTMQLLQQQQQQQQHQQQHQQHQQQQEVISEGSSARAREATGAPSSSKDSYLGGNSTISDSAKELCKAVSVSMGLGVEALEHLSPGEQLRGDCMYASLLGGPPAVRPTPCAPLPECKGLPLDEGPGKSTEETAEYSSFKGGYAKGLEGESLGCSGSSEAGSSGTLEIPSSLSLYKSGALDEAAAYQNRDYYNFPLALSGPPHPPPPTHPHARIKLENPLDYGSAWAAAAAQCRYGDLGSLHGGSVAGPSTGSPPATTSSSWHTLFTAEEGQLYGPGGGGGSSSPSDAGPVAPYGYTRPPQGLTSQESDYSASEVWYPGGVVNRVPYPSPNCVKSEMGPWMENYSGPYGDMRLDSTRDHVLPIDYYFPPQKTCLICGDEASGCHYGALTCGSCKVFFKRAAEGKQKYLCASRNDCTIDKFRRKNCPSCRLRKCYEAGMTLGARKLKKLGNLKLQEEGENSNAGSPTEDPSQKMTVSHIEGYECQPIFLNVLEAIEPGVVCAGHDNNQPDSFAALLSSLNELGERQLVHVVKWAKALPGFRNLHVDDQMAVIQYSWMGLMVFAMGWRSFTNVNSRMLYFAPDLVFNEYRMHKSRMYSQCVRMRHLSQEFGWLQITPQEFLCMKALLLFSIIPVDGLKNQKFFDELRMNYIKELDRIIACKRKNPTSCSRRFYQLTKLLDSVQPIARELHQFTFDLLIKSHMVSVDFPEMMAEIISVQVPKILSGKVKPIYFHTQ
Description: Using six- to eight-week-old C57Bl/6 male mice, chow and water were provided ad libitum. Compounds were administered by oral gavage at the indicated dose using 5% dimethyl sulfoxide (DMSO), 95% (2% Tween 80, PEG 400) as the vehicle. Mice were euthanized by using Isoflurane inhalation (2-4% induction) followed by decapitation 24 hours post dose unless otherwise indicated. The levator ani/bulbocavernosus (LABC) muscle was dissected and immediately snap frozen and stored at −80° C. prior to analysis. Compound exposure was measured in serum and muscle lysates.
Anti-androgen receptor rabbit polyclonal antibody, clone PG-21 (Millipore; 06-680), was diluted in BupH carbonate-bicarbonate buffer (Thermo; 28382) to a concentration of 2 μg/mL and coated onto 96-well ELISA plates by incubating 50 μL per well overnight at 37° C. Plates were washed 4× with tris-buffered saline (TBS) buffer containing 0.1% Tween-20 (TBS-0.1% T) and blocked with 3% bovine serum albumin in TBS-T for 3 hours at room temperature (200 μL per well). AR peptide standard (Creative Biomart; Cat. No. AR-9788H) and samples were diluted in 1% bovine serum albumin (BSA)/TBS-0.05% T. After the blocking period, plates were washed as above, and 50 μL of standard and samples were added. Plates were incubated overnight at 4° C. with shaking. Following the incubation period, the plates were allowed to acclimate to room temperature with shaking for 1 hour. The detection antibody (anti-AR antibody, clone EPR1535 (abcam; ab194196)), conjugated to horse radish peroxidase (HRP), was diluted 1:15000 in 1% BSA/TBS-0.05% T and co-incubated with the samples by adding 50 μL to each well and shaking for 2 hours at room temperature. Plates were washed as above. Chemiluminescent substrate (ELISABright; Advansta; K-16025) was added to the plates (100 μL per well).
In vivo degradation of endogenous AR was evaluated for 95 compounds in murine levator ani/bulbocavernosus (LABC) muscle using a 30 mg/kg PO dose (see Example 1). The observed AR degradation for these 95 compounds ranged from 0-85% of AR in mouse LABC.

CC(C)N(CC1CCN(c2ncc(C(=O)N[C@H]3C(C)(C)[C@H](Oc4ccc(C#N)c(Cl)c4)C3(C)C)cn2)CC1)[C@H]1C[C@H](Oc2ccc3c(c2)C(=O)N(C2CCC(=O)NC2=O)C3=O)C1 (some centres unmarked) [Compound A, N-((1r,3r)-3-(3-chloro-4-cyanophenoxy)-2,2,4,4-tetramethylcyclobutyl)-2-(4-((((1r,3r)-3-((2-(2,6-dioxopiperidin-3-yl)-1,3-dioxoisoindolin-5-yl)oxy)cyclobutyl)(isopropyl)amino)methyl)piperidin-1-yl)pyrimidine-5-carboxamide]
DC50 ([1]; DHT present at 500 pM, read-out: DC50 in hiPSC myotubes with DHT): 5.9 nM
DC50 ([1]; without any DHT (0 pM), read-out: DC50 in hiPSC myotubes without DHT): 0.5 nM
time for AR levels in LABC muscle to return to normal post administration ([2]; 30 mg/kg, once per day (QD) for 3 days): about 3 days
time for AR to return to basal levels in LABC muscle ([2]; mouse LABC muscle): 48 to 72 h
dose that achieves AR degradation of ~50% ([2]; mouse muscle): About 10 mg/kg
